Experimental data: US20140345648A1, “Oral Healthcare, Products and Methods Therefor” (OZOSPA HOLDINGS LIMITED, priority 2011, published 2014)

Key:
[1] = system: Porphyromonas gingivalis ATCC 3327; assay: Challenge test of powder product, liquid product, xylitol and bicarbonate of soda (based on B.S.3286:1960), Example 4; type: cell-based; conditions: for Porphyromonas gingivalis ATCC 3327 Population Levels T = 0 / Porphyromonas gingivalis ATCC 3327 Population Levels T = 2 / Porphyromonas gingivalis ATCC 3327 Population Levels T = 1 / Porphyromonas gingivalis ATCC 3327 Population Levels T = 4 / Porphyromonas gingivalis ATCC 3327 Population Levels T = 3 / Porphyromonas gingivalis ATCC 3327 Population Levels T = 6 / Porphyromonas gingivalis ATCC 3327 Population Levels T = 5 / Porphyromonas gingivalis ATCC 3327 Population Levels T = 8 / Porphyromonas gingivalis ATCC 3327 Population Levels T = 7: Table 7; for Porphyromonas gingivalis ATCC 3327 Population Levels T = 0: Day 0, powders 1:5, liquid neat; for Porphyromonas gingivalis ATCC 3327 Population Levels T = 2: Day 1, 2 hrs after 10 mls of fresh sol'n added; for Porphyromonas gingivalis ATCC 3327 Population Levels T = 1: Day 1, prior to 10 mls of fresh sol'n added; for Porphyromonas gingivalis ATCC 3327 Population Levels T = 4: Day 2, 2 hrs after 10 mls of fresh sol'n added; for Porphyromonas gingivalis ATCC 3327 Population Levels T = 3: Day 2, prior to 10 mls of fresh sol'n added; for Porphyromonas gingivalis ATCC 3327 Population Levels T = 6: Day 3, 2 hrs after 10 mls of fresh sol'n added; for Porphyromonas gingivalis ATCC 3327 Population Levels T = 5: Day 3, prior to 10 mls of fresh sol'n added; for Porphyromonas gingivalis ATCC 3327 Population Levels T = 8: Day 4, 2 hrs after 10 mls of fresh sol'n added; for Porphyromonas gingivalis ATCC 3327 Population Levels T = 7: Day 4, prior to 10 mls of fresh sol'n added; for effect against the Porphyromonas gingivalis population (in words): controlled laboratory test
Procedure: (§1) The powder product and the liquid product were challenge tested against the organisms Streptococcus mutans and Porphyromonas gingivalis. […] The challenge method used was based on B.S.3286: 1960 “Method for Laboratory Evaluation of Disinfectant Activity of Quaternary Ammonium Compounds by Suspension Test Procedure”. This standard describes a test procedure for the laboratory evaluation of the activity of disinfectants, in which a suspension of viable microorganisms is added to solutions containing a pre-determined concentration of the disinfectant and the numbers of organisms surviving after a period of time is determined. A 1:5 solution of the powders with sterile deionised water was used for the challenge testing. The liquid product was used neat. The following organisms were used for the challenge testing: […] A modification will be made to the method by the addition of 10 ml of each solution each day, for 4 days. (The blank solution would have 10 ml of Neutralising buffer added.) […]

[2] = system: Streptococcus mutans ATCC 25175; assay: as above; type: cell-based; conditions: for Streptococcus mutans ATCC 25175 Population Levels T = 0: Day 0, powders 1:5, liquid neat; for Streptococcus mutans ATCC 25175 Population Levels T = 2: Day 1, 2 hrs after 10 mls of fresh sol'n added; for Streptococcus mutans ATCC 25175 Population Levels T = 1: Day 1, prior to 10 mls of fresh sol'n added; for Streptococcus mutans ATCC 25175 Population Levels T = 4: Day 2, 2 hrs after 10 mls of fresh sol'n added; for Streptococcus mutans ATCC 25175 Population Levels T = 3: Day 2, prior to 10 mls of fresh sol'n added; for Streptococcus mutans ATCC 25175 Population Levels T = 6: Day 3, 2 hrs after 10 mls of fresh sol'n added; for Streptococcus mutans ATCC 25175 Population Levels T = 5: Day 3, prior to 10 mls of fresh sol'n added; for Streptococcus mutans ATCC 25175 Population Levels T = 8: Day 4, 2 hrs after 10 mls of fresh sol'n added; for Streptococcus mutans ATCC 25175 Population Levels T = 7: Day 4, prior to 10 mls of fresh sol'n added
Procedure: as §1

| Compound | Porphyromonas gingivalis ATCC 3327 Population Levels T = 0 [1] | Porphyromonas gingivalis ATCC 3327 Population Levels T = 2 [1] | Porphyromonas gingivalis ATCC 3327 Population Levels T = 1 [1] | Porphyromonas gingivalis ATCC 3327 Population Levels T = 4 [1] | Porphyromonas gingivalis ATCC 3327 Population Levels T = 3 [1] | Porphyromonas gingivalis ATCC 3327 Population Levels T = 6 [1] | Porphyromonas gingivalis ATCC 3327 Population Levels T = 5 [1] | Porphyromonas gingivalis ATCC 3327 Population Levels T = 8 [1] | Porphyromonas gingivalis ATCC 3327 Population Levels T = 7 [1] | effect against the Porphyromonas gingivalis population (in words) [1] | Streptococcus mutans ATCC 25175 Population Levels T = 0 [2] | Streptococcus mutans ATCC 25175 Population Levels T = 2 [2] | Streptococcus mutans ATCC 25175 Population Levels T = 1 [2] | Streptococcus mutans ATCC 25175 Population Levels T = 4 [2] | Streptococcus mutans ATCC 25175 Population Levels T = 3 [2] | Streptococcus mutans ATCC 25175 Population Levels T = 6 [2] | Streptococcus mutans ATCC 25175 Population Levels T = 5 [2] | Streptococcus mutans ATCC 25175 Population Levels T = 8 [2] [cfu/ml] | Streptococcus mutans ATCC 25175 Population Levels T = 7 [2] | reduction in the Streptococcus mutans population ([2]; over the 5 days, Example 4) [log] |
| --- | --- | --- | --- | --- | --- | --- | --- | --- | --- | --- | --- | --- | --- | --- | --- | --- | --- | --- | --- | --- |
| O=C([O-])O.[Na+] [Bicarbonate of Soda solution, Sodium Bicarbonate] | 2.5 × 10^6 cfu/ml | 3.1 × 10^5 cfu/ml | 5.9 × 10^5 cfu/ml | 1.1 × 10^5 cfu/ml | 1.2 × 10^5 cfu/ml | 3.3 × 10^4 cfu/ml | 2.4 × 10^4 cfu/ml | 2.8 × 10^3 cfu/ml | 4.8 × 10^3 cfu/ml | did not appear to be effective on its own | 1.5 × 10^7 cfu/ml | 3.4 × 10^5 cfu/ml | 1.8 × 10^6 cfu/ml | 3.2 × 10^4 cfu/ml | 6.7 × 10^4 cfu/ml | 2.8 × 10^3 cfu/ml | 7.7 × 10^3 cfu/ml | 10 | 1.2 × 10^2 cfu/ml | 6 |
| OC[C@@H](O)[C@H](O)[C@@H](O)CO [Xylitol solution, Xylitol] | 2.6 × 10^6 cfu/ml | 1.9 × 10^3 cfu/ml | 9.1 × 10^3 cfu/ml | <10 cfu/ml | 20 cfu/ml | <10 cfu/ml | <10 cfu/ml | <10 cfu/ml | <10 cfu/ml | reasonably effective | 1.5 × 10^7 cfu/ml | 5.2 × 10^5 cfu/ml | 7.8 × 10^6 cfu/ml | 2.6 × 10^4 cfu/ml | 1.0 × 10^5 cfu/ml | 1.6 × 10^4 cfu/ml | 1.0 × 10^4 cfu/ml | <10 | 30 cfu/ml | – |
